Data published in patent US7612200B2, “Inhibitors of protein kinases” (Locus Pharmaceuticals, Inc., priority 2004, dated 2009).

Legend:
Lyn = Lyn (Homo sapiens, UniProt P07948); test: Lyn Kinase Activity; assay type: biochemical; settings: compound at 2 μm
Description: Lyn Kinase Activity: In a final reaction volume of 25 μl, Lyn (h) (5-10 mU) is incubated with 50 mM Tris pH 7.5, 0.1 mM EGTA, 0.1 mM Na3VO4, 0.1% β-mercaptoethanol, 0.1 mg/ml poly(Glue, Tyr) 4:1, 10 mM MgAcetate and [γ-^33P-ATP] (specific activity approx. 500 cpm/pmol, concentration as required). The reaction is initiated by the addition of the MgATP mix. After incubation for 40 minutes at room temperature, the reaction is stopped by the addition of 5 μl of a 3% phosphoric acid solution. 10 μl of the reaction is then spotted onto a Filtermat A and washed three times for 5 minutes in 75 mM phosphoric acid and once in methanol prior to drying and scintillation counting.

TrkB = TrkB (Homo sapiens, UniProt Q16620); test: TrkB Kinase Activity; assay type: biochemical
Description: TrkB Kinase Activity: In a final reaction volume of 25 μl, TrkB (h) (5-10 mU) is incubated with 8 mM MOPS pH 7.0, 0.2 mM EDTA, 0.1 mg/ml poly(Glu, Tyr) 4:1, 10 mM MgAcetate and [γ-^33P-ATP] (specific activity approx. 500 cpm/pmol, concentration as required). The reaction is initiated by the addition of the MgATP mix. After incubation for 40 minutes at room temperature, the reaction is stopped by the addition of 5 μl of a 3% phosphoric acid solution. 10 μl of the reaction is then spotted onto a Filtermat A and washed three times for 5 minutes in 75 mM phosphoric acid and once in methanol prior to drying and scintillation counting.

TrkB, sequence (Q16620 32-822): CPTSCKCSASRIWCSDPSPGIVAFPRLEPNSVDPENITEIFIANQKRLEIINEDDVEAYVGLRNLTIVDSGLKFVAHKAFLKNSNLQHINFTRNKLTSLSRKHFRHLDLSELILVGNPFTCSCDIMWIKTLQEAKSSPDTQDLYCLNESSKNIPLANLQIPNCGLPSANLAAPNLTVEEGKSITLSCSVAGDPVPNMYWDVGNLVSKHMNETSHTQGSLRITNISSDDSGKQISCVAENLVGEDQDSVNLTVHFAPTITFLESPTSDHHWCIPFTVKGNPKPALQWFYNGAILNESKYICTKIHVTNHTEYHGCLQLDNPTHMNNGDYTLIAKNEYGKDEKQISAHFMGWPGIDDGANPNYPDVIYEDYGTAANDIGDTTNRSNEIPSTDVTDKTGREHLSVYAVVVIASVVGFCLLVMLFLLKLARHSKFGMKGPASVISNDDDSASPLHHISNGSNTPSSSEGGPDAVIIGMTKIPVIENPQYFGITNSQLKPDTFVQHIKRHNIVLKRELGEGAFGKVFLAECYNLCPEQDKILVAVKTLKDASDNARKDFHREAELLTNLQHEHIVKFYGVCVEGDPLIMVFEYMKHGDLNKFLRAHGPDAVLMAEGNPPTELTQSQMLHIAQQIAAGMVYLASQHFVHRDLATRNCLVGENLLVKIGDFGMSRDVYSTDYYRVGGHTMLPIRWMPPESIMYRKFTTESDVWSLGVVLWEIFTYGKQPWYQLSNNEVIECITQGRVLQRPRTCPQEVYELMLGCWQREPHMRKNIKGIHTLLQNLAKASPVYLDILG
Lyn, sequence (P07948 whole entry): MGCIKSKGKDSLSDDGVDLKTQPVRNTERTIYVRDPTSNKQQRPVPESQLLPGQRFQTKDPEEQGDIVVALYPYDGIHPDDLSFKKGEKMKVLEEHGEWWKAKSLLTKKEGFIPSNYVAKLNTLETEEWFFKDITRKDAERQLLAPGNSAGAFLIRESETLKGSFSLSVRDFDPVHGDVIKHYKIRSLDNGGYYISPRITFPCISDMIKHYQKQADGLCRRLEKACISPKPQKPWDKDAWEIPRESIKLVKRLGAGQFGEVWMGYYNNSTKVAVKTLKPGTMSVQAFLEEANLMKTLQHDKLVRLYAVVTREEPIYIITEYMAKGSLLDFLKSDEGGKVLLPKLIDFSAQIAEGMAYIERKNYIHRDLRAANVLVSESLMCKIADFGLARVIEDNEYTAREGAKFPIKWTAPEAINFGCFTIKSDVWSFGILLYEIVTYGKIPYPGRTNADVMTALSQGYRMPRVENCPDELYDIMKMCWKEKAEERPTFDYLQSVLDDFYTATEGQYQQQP

## CC(C)(C)c1cc(C(=O)N2CCS(=O)(=O)CC2)c(NC(=O)Nc2ccc(Oc3ccncc3)cc2)s1 [Example 3, 1-[5-tert-Butyl-3-(1,1-dioxo-1λ^6-thiomorpholine-4-carbonyl)thiophen-2-yl]-3-[4-(pyridin-4-yloxy)phenyl]urea]
Lyn
  % Inhibition at 2 μm: 76-100%
TrkB; 40 min, Human, Rate (μM) 2, read-out: % Control
  remaining activity at 2 µM: 76 to 100%
TrkB; compound at 2 μm
  % Inhibition at 2 μm: 76-100%
